Reference: patent publication US9951373B2, “Oplophorus-derived luciferases, novel coelenterazine substrates, and methods of use” (Promega Corporation, priority 2010, dated 2018)
Where two headings read alike, the source gives them in different places.

Key:
HEK293 cells [1] = assay: Live cell luminescence with PBI-3939; type: cell-based, human; details: cells in culture, 60 μM
Method: A. The use of OgLuc variants and PBI-3939 in live cells was examined HEK293 cells were plated in 96-well plates at 15,000 cells/well and grown overnight at 37° C. The following day, the cells were transiently transfected using TRANSIT®-LT1 in 3 replicates with 100 ng of hRL or 9B8 opt in pF4Ag and grown overnight at 37° C. The following day the growth media was removed and replaced with media containing 60 μM VIVIREN™ Live Cell Substrate (Promega Corp.), 60 μM ENDUREN™ Live Cell Substrate (Promega Corp.), or 60 μM PBI-3939 for both hRL and 9B8 opt transfected cells. Non-transfected cells were used as background control. The plate was incubated at 37° C. during the course of one day and periodically measured on a TECAN® GENIOS™ Pro luminometer, i.e., 11 times over the course of 24 hrs.

[2] = target: T1, red click beetle luciferase and OgLuc variant 9B8 opt (Oplophorus gracilirostris, UniProt Q9GV45, A31E/A60K/A81I/F95Y/I117V/L99Q/M102K/N193R/P142E/Q151K/Q38R/Q45L/V71I/Y165I); assay: Multiplexing with red click beetle luciferase, modified DUAL-GLO assay; type: biochemical; details: 9B8 opt, STOP&GLO Reagent with 20 μM of the substrate
T1 construct: The IV-based variants were generated in a pF4Ag vector background without HT7; made in house; host or cells: E. coli (crude lysate, diluted 1000-fold)
T1 sequence (Q9GV45 other isoform, or with tags, fused parts or gaps with the stated changes): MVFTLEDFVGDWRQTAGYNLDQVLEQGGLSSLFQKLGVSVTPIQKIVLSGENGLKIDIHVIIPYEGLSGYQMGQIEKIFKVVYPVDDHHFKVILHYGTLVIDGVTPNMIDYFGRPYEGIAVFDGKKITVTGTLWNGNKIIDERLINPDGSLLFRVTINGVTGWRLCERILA
Method: (§1) A. Lysates of E. coli expressing the variant 9B8 opt were prepared as previously described in Example 27 and diluted 1000-fold in DMEM without phenol red+0.1% PRIONEX®. Luminescence from a sample containing 6.3 μg/mL of purified red click beetle luciferase and E. coli lysate expressing the variant 9B8 opt was detected using a modified DUAL-GLO® Luciferase Assay System (Promega Corp.). DUAL-GLO® STOP&GLO® Reagent containing 20 μM coelenterazine-h and DUAL-GLO® STOP&GLO® Reagent containing 20 μM PBI 3939 were used, according to the manufacturer's protocol, to detect the red click beetle luciferase and OgLuc variant 9B8 luciferase from a single sample. Three replicates were performed.
(§2) Luminescence was detected on a Turner MODULUS™ luminometer. […] The standard deviation (“+/−”) and coefficient of variance (“CV”) are also shown. A “no coelenterazine” control was performed to illustrate the amount of quenching of the red click beetle signal by the DUAL-GLO® STOP&GLO® Reagent of the DUAL-GLO® Luciferase Assay System in the absence of coelenterazine. The “no coelenterazine” control yielded a 349-fold quench.

[3] = system: red click beetle luciferase and OgLuc variant 9B8 opt; assay: as above; type: biochemical; details: first step, red click beetle luciferase signal
Method: as §1, §2

HEK293 cells [4] = system: HEK293 cells
[5] = Stability of coelenterazines in reporter reagent buffer (T90); details: time for luminescent signal to decay by 10% at 22° C. in reporter reagent buffer; read with IV lysate
OgLuc variant 9B8 = target: T2, OgLuc variant 9B8 (Oplophorus gracilirostris, UniProt Q9GV45, A31E/A60K/A81I/F95Y/I117V/L99Q/M102K/N193R/P142E/Q151K/Q38R/Q45L/V71I/Y165I); assay: LOPAC library inhibition screen; type: biochemical; details: preliminary LOPAC screen, 9B8, 20 μM substrate
T2 construct: The IV-based variants were generated in a pF4Ag vector background without HT7; made in house; host or cells: E. coli (crude lysate)
T2 sequence (Q9GV45 other isoform, or with tags, fused parts or gaps with the stated changes): as above
Method: To determine the susceptibility of the OgLuc variants to off-target interactions, the activity of the 9B8 and L27V variants was screened against a LOPAC (library of pharmacologically active compounds) library. A LOPAC 1280 library (Sigma) was prepared by diluting the compounds to 1 mM in DMSO. On the day of the assay, the compounds were diluted to 20 μM in 1×PBS, and 10 μL transferred to a 96-well, white plate. To each well, 10 μL of purified 9B8, L27V or firefly luciferase (Luc2) enzyme diluted 10^−4 in Glo Lysis Buffer (Promega Corp.) was added and incubated at room temperature for 2 min. […] For assaying firefly luciferase, the BRIGHT-GLO™ Assay reagent (Promega Corp.) was used according to the manufacturer's protocol. As a negative control, 8 wells of each plate contained 1×PBS+2% glycerol. As a positive control, 8 wells of each plate contained 2 mM Suramin in 2% DMSO or 2 mM luciferase inhibitor 1 in 2% DMSO (Calbiochem).

| Molecule | Stability (pH 8) (T90 in hrs) [hrs] | Stability (pH 8) (T90 in hrs) [5] [hrs] | also measured |
| --- | --- | --- | --- |
| O=c1c(Cc2ccco2)nc2c(Cc3ccccc3)[nH]c(-c3ccccc3)cn1-2 [PBI-3939, 8-benzyl-2-(furan-2-ylmethyl)-6-phenylimidazo[1,2-a]pyrazin-3(7H)-one] | 4.1 | – | cell permeability (HEK293 cells [1]): can permeate cells in culture; Ogluc (average luminescence) [2]: 2,996,940; click beetle (average luminescence) [3]: 5,078,547; biocompatibility in terms of cell viability (HEK293 cells [4]): comparable biocompatibility to native coelenterazine |
| Cc1ccc(C(=O)Nc2ccc(S(=O)(=O)O)c3cc(S(=O)(=O)O)cc(S(=O)(=O)O)c23)cc1NC(=O)c1cccc(NC(=O)Nc2cccc(C(=O)Nc3cc(C(=O)Nc4ccc(S(=O)(=O)O)c5cc(S(=O)(=O)O)cc(S(=O)(=O)O)c45)ccc3C)c2)c1 [Suramin] | – | – | inhibition of OgLuc (OgLuc variant 9B8): inhibitor of OgLuc |
| O=c1c(Cc2ccccc2)nc2c(Cc3ccccc3)[nH]c(-c3ccccc3)cn1-2 [coelenterazine-hh, bisdeoxycoelenterazine, reference compound] | – | 2.0 | – |
| Oc1ccc(Cc2nc3c(Cc4ccccc4)nc(-c4ccc(O)cc4)cn3c2O)cc1 [native coelenterazine, coelenterazine] | 1.7 | – | – |
| coelenterazine-h [reference compound] | – | 2.1 | Ogluc (average luminescence) [2]: 921,440; click beetle (average luminescence) [3]: 5,082,100 |

The next lines start with results.

| Stability (pH 8) (T90 in hrs) [hrs] | Stability (pH 8) (T90 in hrs) [5] [hrs] | Molecule | also measured |
| --- | --- | --- | --- |
| 2.9 | – | O=c1c(Cc2cccs2)nc2c(Cc3ccccc3)[nH]c(-c3ccccc3)cn1-2 [PBI-3889, 8-benzyl-6-phenyl-2-(thiophen-2-ylmethyl)imidazo[1,2-a]pyrazin-3(7H)-one] | – |
| 2.8 | – | Cc1[nH]c(-c2ccccc2)cn2c(=O)c(Cc3ccc(O)cc3)nc1-2 [PBI-3896, 2-(4-hydroxybenzyl)-8-methyl-6-phenylimidazo[1,2-a]pyrazin-3(7H)-one] | – |
| – | 3.3 | O=c1c(Cc2ccco2)nc2c(Cc3ccccc3)[nH]c(-c3ccc(O)cc3)cn1-2 [PBI-3945] | – |
| – | 3.5 | O=c1c(Cc2cccs2)nc2c(Cc3ccccc3)[nH]c(-c3ccc(O)cc3)cn1-2 [PBI-4002] | – |
